This note sets out measurements from patent US20260098030A1, “NEGATIVE ALLOSTERIC MODULATORS OF METABOTROPIC GLUTAMATE RECEPTOR 2” (Vanderbilt University, priority 2022, published 2026).

T1 sequence (P31421 19-872): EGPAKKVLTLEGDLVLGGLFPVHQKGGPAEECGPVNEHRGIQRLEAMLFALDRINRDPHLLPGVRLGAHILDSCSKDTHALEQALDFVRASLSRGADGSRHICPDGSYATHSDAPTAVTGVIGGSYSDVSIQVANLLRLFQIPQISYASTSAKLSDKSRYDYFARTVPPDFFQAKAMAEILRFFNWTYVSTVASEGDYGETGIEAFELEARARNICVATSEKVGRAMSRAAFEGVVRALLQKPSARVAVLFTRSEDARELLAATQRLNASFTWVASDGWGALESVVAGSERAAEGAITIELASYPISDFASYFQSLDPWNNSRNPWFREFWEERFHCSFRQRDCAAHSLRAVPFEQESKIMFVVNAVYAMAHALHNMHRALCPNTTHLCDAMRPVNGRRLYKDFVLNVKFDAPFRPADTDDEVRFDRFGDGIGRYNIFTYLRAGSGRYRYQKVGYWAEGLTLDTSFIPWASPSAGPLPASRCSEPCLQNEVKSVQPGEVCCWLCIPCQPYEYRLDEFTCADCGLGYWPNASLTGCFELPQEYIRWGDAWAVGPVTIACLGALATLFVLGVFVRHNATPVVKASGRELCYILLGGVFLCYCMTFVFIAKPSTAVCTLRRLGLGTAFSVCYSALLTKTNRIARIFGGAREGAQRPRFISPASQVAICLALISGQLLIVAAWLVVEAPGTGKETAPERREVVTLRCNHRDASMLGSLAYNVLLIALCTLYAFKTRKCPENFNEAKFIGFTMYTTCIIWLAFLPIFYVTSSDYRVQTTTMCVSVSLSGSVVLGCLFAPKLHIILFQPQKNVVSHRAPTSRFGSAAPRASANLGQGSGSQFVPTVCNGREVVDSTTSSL

This assay concerns the target T1, rat mGlu2 (Rattus norvegicus, UniProt P31421).
T1 construct: expressed in transfected cells; host or cells: HEK-293 cells stably co-expressing GIRK channels
As to the kind of experiment: mGlu GIRK cell-based thallium flux assay, rat mGlu2. The note with it: HEK-293 cells co-expressing rat mGlu2 and GIRK, EC80 glutamate. The protocol: Human embryonic kidney (HEK-293) cell lines stably co-expressing human or rat mGlu2 and G protein-coupled inwardly rectifying potassium (GIRK) channels, or human mGlu3 and GIRK, were used for in vitro evaluation of compound activity in thallium flux assay using a fluorescent thallium indicator dye.
The day before the assay, GIRK cells co-expressing human mGlu3, human or rat mGlu2, as described above, were plated in black-walled, clear-bottomed, amine-coated 384-well plates at a density of 15,000 cells/20 μL/well in the assay medium (glutamine-depleted basal DMEM supplemented with 10% dialyzed FBS, 20 mM HEPES, 1 mM sodium pyruvate). Cells were incubated at 37° C. in the presence of 5% CO2. The next day, assay buffer (Hanks balanced salt solution, 20 mM HEPES, 4.16 mM sodium bicarbonate, pH 7.2) was prepared to dilute compounds and Thallos AM fluorescent dye solution. The 2× Thallos dye solution (final concentration 0.34 μM to the cells) was prepared by mixing the dye stock (2.97 mM in DMSO) to 1:1 with 10% pluronic acid before adding to the assay buffer. Cells were washed with assay buffer using a microplate washer to remove the medium, resulting in 20 μL of buffer remaining in each well. Immediately, 20 μL of 2× Thallos dye solution was added to cells, and incubated for one hour at 25° C. During the cell dye loading incubation period, a 10-point concentration serial dilution of compound was created from a 10 mM DMSO compound stock by performing a 1:3 serial dilution in DMSO using the Bravo liquid handler. The 2× compound plate was generated by transferring 0.24 μL of the diluted compound in each well to a daughter plate using an Echo acoustic liquid handler. This is further diluted in 40 μL assay buffer, resulting in a range from 30 μM to 1.5 nM final concentration in the assay. The agonist plate (5×) was prepared to include EC80 glutamate concentration (a concentration to elicit 80% of a maximally effective glutamate concentration) in thallium buffer (125 mM […], 1 mM magnesium sulfate, 1.8 mM calcium sulfate, 5 mM glucose, 10 mM HEPES, pH 7.2, 12.5 mM thallium sulfate).
After dye-loading, cell plates were washed with assay buffer to remove excess extracellular dye using a microplate washer, resulting in 20 μL of buffer remaining in each well. After a ten-minute equilibration period, cell, compound and agonist plates were loaded into a Hamamatsu μCell kinetic imaging plate reader equipped with liquid handler to monitor fluorescence changes at 480 nm excitation and 540 nm emission settings. Briefly, after collection of baseline fluorescence, 20 μL of compound was added and incubated for two minutes and twenty seconds. This is immediately followed by adding 10 μL of glutamate-thallium buffer to the wells containing compound. The fluorescent signal was monitored an additional 2.5 minutes after the glutamate addition. Multiple reference wells containing no compound received either no glutamate (for a baseline reference), EC80 glutamate, or ECmax glutamate (for normalization to maximum response). Fluorescence was measured throughout the experiment at a frequency of 1 measurement per every 2 seconds before the glutamate addition and a frequency of 1 measurement per every 1 second after the glutamate addition. Each compound concentration series occurred one time in each plate, and replicates from two or three plates were used in each experimental run. Thallium solutions were handled and disposed of according to guidelines from the Vanderbilt University Chemical Safety department.
Data were normalized using a static ratio function (F/F0) by dividing every fluorescent measurement by the initial fluorescent value for the corresponding well. The increase in signal resulting from the glutamate/thallium addition of the second add was measured by determining the slope from 3 seconds to 13 seconds after the addition. […]
As usually defined, the IC50 is the concentration at which inhibition is half-maximal. `CC1CC(c2cc3c(cc2-c2ccc(F)cc2)C(=O)NC3)CC(C)N1` (stereo not drawn) [Compound 68, 5-(2,6-dimethylpiperidin-4-yl)-6-(4-fluorophenyl)isoindolin-1-one]: the IC50 was more than 10000 nM. Then `O=C1NCc2cc(-c3ccc(C4CC4)nc3)c(-c3ccc(F)cc3F)cc21` [Compound 70, 5-(6-cyclopropylpyridin-3-yl)-6-(2,4-difluorophenyl)isoindolin-1-one], with 1980 nM; and `CN(C)c1ncccc1-c1cc2c(cc1-c1ccc(F)cc1F)C(=O)NC2` [Compound 71, 6-(2,4-difluorophenyl)-5-(2-(dimethylamino)pyridin-3-yl)isoindolin-1-one], with 5100 nM. Then `O=C1NCc2cc(-c3cccnc3F)c(-c3ccc(F)cc3F)cc21` [Compound 72, 6-(2,4-difluorophenyl)-5-(2-fluoropyridin-3-yl)isoindolin-1-one], with 999 nM; and `Cc1ncccc1-c1cc2c(cc1-c1ccc(F)cc1F)C(=O)NC2` [Compound 73, 6-(2,4-difluorophenyl)-5-(2-methylpyridin-3-yl)isoindolin-1-one], with 4410 nM; and `CC1(C)CC(c2cc3c(cc2-c2ccc(F)cc2)C(=O)NC3)CC(C)(C)N1` [Compound 75, 6-(4-fluorophenyl)-5-(2,2,6,6-tetramethylpiperidin-4-yl)isoindolin-1-one], with more than 10000 nM. Then `CC1(C)CNCC=C1c1cc2c(cc1-c1ccc(F)cc1)C(=O)NC2` [Compound 76, 5-(3,3-dimethyl-1,2,3,6-tetrahydropyridin-4-yl)-6-(4-fluorophenyl)isoindolin-1-one], with more than 10000 nM; and `CC1CNCCC1c1cc2c(cc1-c1ccc(F)cc1)C(=O)NC2` (stereo not drawn) [Compound 77, 6-(4-fluorophenyl)-5-(3-methylpiperidin-4-yl)isoindolin-1-one], with more than 10000 nM; and `O=C1NCc2cc(C3CCCNC3)c(-c3ccc(F)cc3)cc21` (stereo not drawn) [Compound 78, 6-(4-fluorophenyl)-5-(piperidin-3-yl)isoindolin-1-one], with more than 10000 nM. Turning to `O=C1NCc2cc(-c3ccc(C(F)(F)F)nc3)c(-c3ccc(F)cc3F)cc21` [Compound 79, 6-(2,4-difluorophenyl)-5-(6-(trifluoromethyl)pyridin-3-yl)isoindolin-1-one], the half-maximal inhibitory concentration (IC50) came out at 1860 nM.

In turn, `Cn1ccc(-c2cc3c(cc2-c2ccc(F)cc2F)C(=O)NC3)n1` [Compound 80, 6-(2,4-difluorophenyl)-5-(1-methyl-1H-pyrazol-3-yl)isoindolin-1-one] returned an IC50 of 1090 nM. On to `Cc1cc(F)ncc1-c1cc2c(cc1-c1ccc(F)cc1F)C(=O)NC2` [Compound 81, 6-(2,4-difluorophenyl)-5-(6-fluoro-4-methylpyridin-3-yl)isoindolin-1-one], for which the half-inhibitory concentration (IC50) was 1140 nM. `O=C1NCc2cc(C3=CCNC3)c(-c3ccc(F)cc3)cc21` [Compound 82, 5-(2,5-dihydro-1H-pyrrol-3-yl)-6-(4-fluorophenyl)isoindolin-1-one] gave an IC50 of more than 10000 nM.

As for `O=C1NCc2cc(C3CCNC3)c(-c3ccc(F)cc3)cc21` (stereo not drawn) [Compound 83, 6-(4-fluorophenyl)-5-(pyrrolidin-3-yl)isoindolin-1-one], the IC50 is more than 10000 nM. Molecule `CC1CC(c2cc3c(cc2-c2ccc(F)cc2)C(=O)NC3)=CCN1` (stereo not drawn) [Compound 84, 6-(4-fluorophenyl)-5-(2-methyl-1,2,3,6-tetrahydropyridin-4-yl)isoindolin-1-one] registered a concentration for half-maximal inhibition (IC50) of more than 10000 nM. In turn, `CC1CC(c2cc3c(cc2-c2ccc(F)cc2)C(=O)NC3)CCN1` (stereo not drawn) [Compound 85, 6-(4-fluorophenyl)-5-(2-methylpiperidin-4-yl)isoindolin-1-one] returned an IC50 of more than 10000 nM. Then `O=C1NCc2cc(-c3cnc(C(F)(F)F)nc3)c(-c3ccc(F)cc3F)cc21` [Compound 86, 6-(2,4-difluorophenyl)-5-(2-(trifluoromethyl)pyrimidin-5-yl)isoindolin-1-one], with more than 10000 nM; and `O=C1NCc2cc(-c3cccnc3)c(-c3ccc(F)cc3F)cc21` [Compound 88, 6-(2,4-difluorophenyl)-5-(pyridin-3-yl)isoindolin-1-one], with 1650 nM. Consider `O=C1NCc2cc(-c3ccc4[nH]ccc4c3)c(-c3ccc(F)cc3F)cc21` [Compound 89, 6-(2,4-difluorophenyl)-5-(1H-indol-5-yl)isoindolin-1-one], for which the IC50 was found to be 925 nM. Then `COc1ccc(-c2cc3c(cc2-c2ccc(F)cc2F)C(=O)NC3)cc1C#N` [Compound 92, 5-(6-(2,4-difluorophenyl)-1-oxoisoindolin-5-yl)-2-methoxybenzonitrile], with 618 nM; and `N#Cc1cc(-c2cc3c(cc2-c2ccc(F)cc2F)C(=O)NC3)ccc1F` [Compound 93, 5-(6-(2,4-difluorophenyl)-1-oxoisoindolin-5-yl)-2-fluorobenzonitrile], with 1500 nM.

`COc1cc(C#N)cc(-c2cc3c(cc2-c2ccc(F)cc2F)C(=O)NC3)c1` [Compound 95, 3-(6-(2,4-difluorophenyl)-1-oxoisoindolin-5-yl)-5-methoxybenzonitrile] registered an IC50 of 1440 nM. In the case of `Cc1cc(-c2cc3c(cc2-c2ccc(F)cc2F)C(=O)NC3)c(C)n1C` [Compound 97, 6-(2,4-difluorophenyl)-5-(1,2,5-trimethyl-1H-pyrrol-3-yl)isoindolin-1-one], half-maximal inhibition (IC50) was put at 938 nM. Then `N#Cc1cccc(-n2cc(-c3cc4c(cc3-c3ccc(F)cc3F)C(=O)NC4)cn2)c1` [Compound 99, 3-(4-(6-(2,4-difluorophenyl)-1-oxoisoindolin-5-yl)-1H-pyrazol-1-yl)benzonitrile], with more than 10000 nM. `COc1ncccc1-c1cc2c(cc1-c1ccc(F)cc1F)C(=O)NC2` [Compound 100, 6-(2,4-difluorophenyl)-5-(2-methoxypyridin-3-yl)isoindolin-1-one] came in with an IC50 of 1120 nM. Then `O=C1NCc2cc(-c3cccnc3N3CCCC3)c(-c3ccc(F)cc3F)cc21` [Compound 102, 6-(2,4-difluorophenyl)-5-(2-(pyrrolidin-1-yl)pyridin-3-yl)isoindolin-1-one], with more than 10000 nM; and `N#Cc1ccc(-c2cc3c(cc2-c2ccc(F)cc2F)C(=O)NC3)c(F)c1` [Compound 103, 4-(6-(2,4-difluorophenyl)-1-oxoisoindolin-5-yl)-3-fluorobenzonitrile], with 2880 nM; and `N#Cc1cc(-c2cc3c(cc2-c2ccc(F)cc2F)C(=O)NC3)ccn1` [Compound 104, 4-(6-(2,4-difluorophenyl)-1-oxoisoindolin-5-yl)picolinonitrile], with more than 10000 nM. Then `COc1cc(F)ccc1-c1cc2c(cc1-c1ccc(F)cc1F)C(=O)NC2` [Compound 105, 6-(2,4-difluorophenyl)-5-(4-fluoro-2-methoxyphenyl)isoindolin-1-one], with 4490 nM. In turn, `N#Cc1cc(F)cc(-c2cc3c(cc2-c2ccc(F)cc2F)C(=O)NC3)c1` [Compound 106, 3-(6-(2,4-difluorophenyl)-1-oxoisoindolin-5-yl)-5-fluorobenzonitrile] gave an IC50 of 1420 nM. Then `N#Cc1cccc(-c2cc3c(cc2-c2ccc(F)cc2F)C(=O)NC3)c1` [Compound 107, 3-(6-(2,4-difluorophenyl)-1-oxoisoindolin-5-yl)benzonitrile], with 589 nM; and `Cc1c(C#N)cccc1-c1cc2c(cc1-c1ccc(F)cc1F)C(=O)NC2` [Compound 109, 3-(6-(2,4-difluorophenyl)-1-oxoisoindolin-5-yl)-2-methylbenzonitrile], with 1130 nM; and `O=C1NCc2cc(-c3cccnc3C(F)(F)F)c(-c3ccc(F)cc3F)cc21` [Compound 110, 6-(2,4-difluorophenyl)-5-(2-(trifluoromethyl)pyridin-3-yl)isoindolin-1-one], with more than 10000 nM.
